For one compound, Activity results are on record in ChEMBL document CHEMBL2074184, “Reversal of multidrug resistance in human leukemia K562 by tamolarizine, a novel calcium antagonist” (Jpn J Pharmacol, 2000).

For this series, the target named is ATP-dependent translocase ABCB1 (Homo sapiens, UniProt P08183). In words: TP_TRANSPORTER: increase in Rhodamine 123 intracellular accumulation (R123: 10 uM, Tamolarizine: 10 uM) in K562/DX cellsR cells, FACScan. The conditions noted are these: k562/dxr. The class given is functional, cell-based.
ATP-dependent translocase ABCB1, sequence (P08183 whole entry): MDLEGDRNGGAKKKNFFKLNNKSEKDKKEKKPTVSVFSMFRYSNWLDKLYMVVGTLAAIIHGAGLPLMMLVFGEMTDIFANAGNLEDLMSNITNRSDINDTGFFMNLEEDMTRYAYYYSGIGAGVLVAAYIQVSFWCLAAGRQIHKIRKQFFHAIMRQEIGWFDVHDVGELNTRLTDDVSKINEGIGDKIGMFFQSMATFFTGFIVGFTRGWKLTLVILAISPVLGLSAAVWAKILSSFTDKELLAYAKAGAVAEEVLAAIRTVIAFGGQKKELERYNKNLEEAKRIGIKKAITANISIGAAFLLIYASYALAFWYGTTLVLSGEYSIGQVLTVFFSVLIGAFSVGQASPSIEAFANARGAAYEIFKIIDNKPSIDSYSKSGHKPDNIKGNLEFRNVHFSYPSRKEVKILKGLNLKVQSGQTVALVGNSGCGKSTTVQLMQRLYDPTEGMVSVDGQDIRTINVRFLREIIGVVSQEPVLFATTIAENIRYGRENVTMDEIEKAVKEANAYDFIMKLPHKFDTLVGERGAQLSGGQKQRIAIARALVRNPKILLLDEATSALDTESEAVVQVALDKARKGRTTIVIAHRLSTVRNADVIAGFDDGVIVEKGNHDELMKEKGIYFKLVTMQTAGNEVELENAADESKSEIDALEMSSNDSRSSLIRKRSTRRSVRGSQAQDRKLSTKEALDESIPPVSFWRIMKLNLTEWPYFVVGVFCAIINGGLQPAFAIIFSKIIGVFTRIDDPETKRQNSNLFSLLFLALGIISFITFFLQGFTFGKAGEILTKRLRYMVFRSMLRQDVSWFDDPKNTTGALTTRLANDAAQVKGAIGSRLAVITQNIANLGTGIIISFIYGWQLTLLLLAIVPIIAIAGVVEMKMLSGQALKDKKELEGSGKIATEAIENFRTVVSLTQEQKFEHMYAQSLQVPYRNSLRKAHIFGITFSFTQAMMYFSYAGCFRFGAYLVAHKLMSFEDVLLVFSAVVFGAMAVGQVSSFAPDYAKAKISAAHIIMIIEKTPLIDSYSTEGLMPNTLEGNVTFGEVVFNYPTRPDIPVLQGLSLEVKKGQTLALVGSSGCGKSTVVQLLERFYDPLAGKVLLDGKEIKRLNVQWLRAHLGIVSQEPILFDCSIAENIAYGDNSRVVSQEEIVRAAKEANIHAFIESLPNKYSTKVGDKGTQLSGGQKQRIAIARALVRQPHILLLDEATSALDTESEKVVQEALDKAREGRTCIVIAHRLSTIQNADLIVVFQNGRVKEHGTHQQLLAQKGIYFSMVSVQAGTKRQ

Take `COc1ccc(C(O)CN2CCN(C(c3ccccc3)c3ccccc3)CC2)cc1OC` (stereo unspecified) [TAMOLARIZINE]: the Activity entry is “inhibitor [+]”.
